The test system of one series is ciPTEC-OAT1. Briefly: MTT viability assay in ciPTEC-OAT1. The conditions noted are these: for Cell viability (MTT) relative to no exposure: ciPTEC-OAT1, 1 mM, 48 h; for IC50: serum free medium, mean ± SEM, n ≥ 3. The class given is cell-based, human.
In another series the test system is ciPTEC-OAT3. Briefly: MTT viability assay in ciPTEC-OAT3. The procedure:
(§1) Briefly, monolayers of ciPTEC (96-wells) were exposed to antivirals in serum-free medium (SFM) on day 6 of maturation. Cell toxicity was analyzed further in presence of multidrug resistance protein (MRP) efflux inhibitor MK571 (5 μM) and breast cancer resistance protein (BCRP) efflux inhibitor KO143 (10 μM). After incubation for 24, 48 and 72 h at 37° C., ciPTEC were washed and incubated with 0.5 mg/ml thiazolyl blue tetrazolium bromide (MTT, Sigma) for 3 h at 37° C. in absence of antivirals. Formazan crystals formed in viable cells were dissolved in dimethyl sulfoxide (DMSO, Merck, Whitehouse Station, USA) and optical density was measured (560 nm, background at 670 nm was subtracted) using Benchmark Plus (Bio-Rad, Hercules, USA).
(§2) Non-linear regression with variable slope constraining the top to 100% was used to fit the data after background subtraction with GraphPad Prism. Statistics was performed by two-way ANOVA (two-tailed, α=0.05) using GraphPad Prism as well. All data is presented as mean±SEM of at least three separate experiments (n=3) performed in triplicate, unless stated otherwise.
A general note: Formazan colour is commonly taken as a measure of viable cells.

Another series relates to ciPTEC parent. As to the kind of experiment: MTT viability assay in ciPTEC parent. The class given is cell-based, human. The conditions noted are these: 10×Cmax (50 μM), with MRP4 inhibitor MK571 and BCRP inhibitor KO143. As for the experimental part: as §1, §2
The conditions of series [1]: Varma et al., 2009; cited from earlier work.
Series [2] addresses T1, OAT1 (Homo sapiens, UniProt Q4U2R8).
T1 sequence (Q4U2R8 1-550 isoform Q4U2R8-2): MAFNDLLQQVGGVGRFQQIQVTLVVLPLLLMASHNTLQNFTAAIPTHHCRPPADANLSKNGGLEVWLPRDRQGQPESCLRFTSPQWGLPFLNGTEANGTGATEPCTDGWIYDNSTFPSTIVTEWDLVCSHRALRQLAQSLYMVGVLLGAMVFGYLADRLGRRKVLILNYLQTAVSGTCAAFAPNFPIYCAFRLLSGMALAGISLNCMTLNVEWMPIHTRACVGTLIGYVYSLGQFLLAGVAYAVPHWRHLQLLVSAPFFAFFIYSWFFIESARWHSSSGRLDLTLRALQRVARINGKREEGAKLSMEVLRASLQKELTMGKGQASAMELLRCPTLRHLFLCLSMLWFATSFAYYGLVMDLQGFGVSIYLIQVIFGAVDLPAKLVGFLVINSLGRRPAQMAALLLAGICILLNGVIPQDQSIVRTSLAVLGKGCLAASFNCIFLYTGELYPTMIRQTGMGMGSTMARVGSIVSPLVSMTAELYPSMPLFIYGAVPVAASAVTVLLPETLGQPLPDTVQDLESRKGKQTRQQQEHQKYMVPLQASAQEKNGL

The target of the next series is T2, OAT3 (Homo sapiens, UniProt Q8TCC7).
T2 sequence (Q8TCC7 1-542): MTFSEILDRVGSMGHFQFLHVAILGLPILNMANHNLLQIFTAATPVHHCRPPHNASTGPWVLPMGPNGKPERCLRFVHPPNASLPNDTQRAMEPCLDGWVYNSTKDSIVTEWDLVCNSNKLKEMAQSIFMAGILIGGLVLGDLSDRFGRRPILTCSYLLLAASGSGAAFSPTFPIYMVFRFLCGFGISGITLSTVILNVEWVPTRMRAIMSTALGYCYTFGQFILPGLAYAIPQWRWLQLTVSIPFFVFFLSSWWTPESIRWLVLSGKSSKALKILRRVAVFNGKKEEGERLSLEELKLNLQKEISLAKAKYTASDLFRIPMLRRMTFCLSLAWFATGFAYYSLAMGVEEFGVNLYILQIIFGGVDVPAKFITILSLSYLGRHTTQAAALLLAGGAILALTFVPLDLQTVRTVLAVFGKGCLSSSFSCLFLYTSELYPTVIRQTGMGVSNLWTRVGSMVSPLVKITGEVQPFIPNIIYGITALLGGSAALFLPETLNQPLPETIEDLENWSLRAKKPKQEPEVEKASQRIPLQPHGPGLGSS

In a further series the target is OCT2 (Homo sapiens, UniProt O15244). The conditions noted are these: ASP+ 1 μM, 60 min, HBSS, 37° C.; similar IC50 in ciPTEC parent, ciPTEC-OAT1 and ciPTEC-OAT3 (p>0.05).
Another series has as its target T3, Xenopus-OAT3 (Homo sapiens, UniProt Q8TCC7).
T3 construct: host or cells: Xenopus oocytes
T3 sequence (Q8TCC7 1-542): T2 sequence (Q8TCC7 1-542)
The following applies: substrate estrone sulfate, Xenopus-OAT3, References 50, 53; read-out: IC50 (literature); cited from earlier work.

A further series addresses T4, CHO-OAT3 (Homo sapiens, UniProt Q8TCC7).
T4 construct: host or cells: CHO
T4 sequence (Q8TCC7 1-542): T2 sequence (Q8TCC7 1-542)
The following applies: substrate Sitagliptin, CHO-OAT3, Reference 51; read-out: IC50 (literature); cited from earlier work.

The test system of series [3] is OAT1. Briefly: OAT1 gene expression in ciPTEC-OAT1 with or without EGF (quantitative PCR). The conditions noted are these: ciPTEC-OAT1, EGF 10 ng/mL, 48 hours. The class given is cell-based, human. As for the experimental part: ciPTEC-OAT1. 4B2 DSM ACC3279 was cultured in phenol red-free DMEM/F12 (Invitrogen, Breda, The Netherlands), as described in example 1 here above. Cells were seeded at a density of 63,000 cell/cm^2, cultured for 24 hours at 33° C. and subsequently at 37° C. for 7 days. To study the effects of EGF, matured ciPTEC-OAT1 were treated for 48 hours in the presence or absence of EGF (10 ng/mL).
OAT1 gene expression profiling was performed by isolating total RNA from cells grown in six-well plates, using an RNeasy Mini kit (Qiagen, Venlo, The Netherlands), according to the manufacturers specifications. Subsequently, cDNA was synthesized using the Omniscript RT-kit (Qiagen). Subsequently, quantitative PCR was performed in a CFX96 Real-Time PCR detection system (Bio-rad, Veenendaal, The Netherlands) according to the manufacturers conditions. GAPDH was used as reference gene for normalization and relative expression levels were calculated as fold change using the 2^−ΔΔCT method. The primer-probe sets for the quantitative PCR were obtained from Applied Biosystems: GAPDH—hs99999905 ml and OAT1—hs00537914.

For a further series, the target named is T5, CHO-OAT1 (Homo sapiens, UniProt Q4U2R8).
T5 construct: host or cells: CHO
T5 sequence (Q4U2R8 1-563): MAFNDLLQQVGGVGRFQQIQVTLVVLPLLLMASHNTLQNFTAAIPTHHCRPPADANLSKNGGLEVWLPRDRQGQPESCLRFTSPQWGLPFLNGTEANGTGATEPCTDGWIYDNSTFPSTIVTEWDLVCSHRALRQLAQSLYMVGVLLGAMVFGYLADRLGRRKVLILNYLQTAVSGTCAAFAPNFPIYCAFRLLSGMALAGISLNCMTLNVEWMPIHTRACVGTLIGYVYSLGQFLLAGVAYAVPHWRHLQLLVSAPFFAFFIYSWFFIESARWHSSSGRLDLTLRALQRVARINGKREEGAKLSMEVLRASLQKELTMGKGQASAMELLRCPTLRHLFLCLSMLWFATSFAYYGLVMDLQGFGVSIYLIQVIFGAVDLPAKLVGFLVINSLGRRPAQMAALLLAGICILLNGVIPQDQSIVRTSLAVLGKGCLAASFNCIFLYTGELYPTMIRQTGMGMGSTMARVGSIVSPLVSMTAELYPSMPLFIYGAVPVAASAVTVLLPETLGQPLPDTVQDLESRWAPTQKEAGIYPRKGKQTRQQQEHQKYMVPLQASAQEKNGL
The following applies: read-out: KI (literature), cited from earlier work.

The target of another series is T6, HeLa-OAT1 (Homo sapiens, UniProt Q4U2R8).
T6 construct: host or cells: HeLa
T6 sequence (Q4U2R8 1-563): T5 sequence (Q4U2R8 1-563)
The following applies: substrate PAH, HeLa-OAT1, Ref. 29; read-out: IC50 (literature); cited from earlier work.

The test system of another series is hOAT1-CHO and HEK-OAT1. The following applies: Ref 35, 37, cited from earlier work.
The mark [4] stands for this setting: 120 h, read-out: Inhibitory potency on cell viability, literature 120 h.
[5] abbreviates: read-out: Inhibitory potency on cell viability, literature 48 h, 48 h.

Where “and” joins values, the source holds several entries; their conditions need not be identical. Equal values may be shown once. Read-outs that look alike come from different tables or passages of the source.

OCT2, sequence (O15244 whole entry): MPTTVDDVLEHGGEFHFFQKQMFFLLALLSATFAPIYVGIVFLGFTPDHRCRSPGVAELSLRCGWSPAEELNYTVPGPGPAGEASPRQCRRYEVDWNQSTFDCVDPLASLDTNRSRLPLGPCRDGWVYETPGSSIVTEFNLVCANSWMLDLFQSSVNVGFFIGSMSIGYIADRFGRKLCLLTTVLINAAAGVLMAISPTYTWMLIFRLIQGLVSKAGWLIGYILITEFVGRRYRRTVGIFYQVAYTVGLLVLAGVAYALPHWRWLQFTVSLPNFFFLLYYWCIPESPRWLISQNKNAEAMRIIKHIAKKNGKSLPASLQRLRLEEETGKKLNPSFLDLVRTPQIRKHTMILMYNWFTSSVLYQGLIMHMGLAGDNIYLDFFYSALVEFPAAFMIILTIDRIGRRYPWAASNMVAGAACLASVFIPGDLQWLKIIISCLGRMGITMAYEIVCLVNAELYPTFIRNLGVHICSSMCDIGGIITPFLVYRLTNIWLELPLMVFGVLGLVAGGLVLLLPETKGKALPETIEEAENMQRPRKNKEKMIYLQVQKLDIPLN

As for `Cc1cn([C@H]2C[C@H](N=[N+]=[N-])[C@@H](CO)O2)c(=O)[nH]c1=O` [Zidovudine], the “Cell viability with efflux inhibitors” value in the series with ciPTEC-OAT1 (ciPTEC-OAT1, 10×Cmax (50 μM), with MK571 and KO143) was “did not affect cell viability”; in the series on ciPTEC-OAT3 (ciPTEC-OAT3, 10×Cmax (50 μM), with MK571 and KO143), “did not affect cell viability”; with ciPTEC parent, “did not affect cell viability”. Moreover, in the series on ciPTEC-OAT1 (ciPTEC-OAT1 and ciPTEC-OAT3, exposure for 24-72 h), the “Cell viability as determined by the MTT assay” value is reported as “did not affect cell viability”. Moreover, the “Fraction eliminated via the urine without metabolic alterations” value in series [1] is 23%.

Regarding `CN/C(=N/CCSCc1nc[nH]c1C)NC#N` [Cimetidine], the IC50 against OAT1 [2] was 654 ± 291 µM; on OAT3, 215 ± 162 µM; at Xenopus-OAT3, 53 µM; on CHO-OAT3 it was 79 µM. Moreover, on OCT2, the “Inhibition of ASP+ uptake at OCT2” value is “significant inhibition”.

As to “EGF: Epidermal growth factor (NSDSECPLSHDGYCLHDGVCMYIEALDKYACNCVVGYIGERCQYRDLKWWELR; Epidermal growth factor; UniProt P01133 971-1023, looked up)”, in the series with OAT1 [3], the OAT1 gene expression entry was “significantly increased”.

Usually Ki stands for the equilibrium dissociation constant of an inhibitor or competing ligand from its target. In the case of `Nc1ncnc2c1ncn2CCOCP(=O)(O)O` [Adefovir], the “Cell viability (MTT) relative to no exposure” value in the series with ciPTEC-OAT1 was “significantly affected”. Further, the IC50 against OAT1 [2] is 23 ± 4 µM; on HeLa-OAT1, 8.1 µM; with hOAT1-CHO and HEK-OAT1 (setting [4]) it was 1.4 ± 0.7 µM; in the series on hOAT1-CHO and HEK-OAT1 (setting [5]), 0.22 ± 0.08 µM. Also, on CHO-OAT1 (CHO-OAT1, substrate not given), the Ki is 23.8 µM.

What is called Km is the substrate concentration at which the rate is half of its maximum. With `O=C1OC2(c3ccc(O)cc3Oc3cc(O)ccc32)c2ccccc21` [fluorescein], the values for the Km at OAT1 [2] and on OAT3 were 0.8 ± 0.1 µM and 3.7 ± 0.5 µM, respectively.

The compound `Nc1ccc(C(=O)NCC(=O)O)cc1` [para-aminohippuric acid] returned an IC50 on OAT3 of 152 ± 3 µM.

On to estrone sulfate, for which the IC50 against OAT3 was 2.1 ± 0.3 µM; at Xenopus-OAT3, 3 µM.

Regarding `Nc1ccn(C[C@@H](CO)OCP(=O)(O)O)c(=O)n1` [Cidofovir], the IC50 was 71 ± 34 µM at OAT1 [2]; 3 ± 1 µM with hOAT1-CHO and HEK-OAT1 (setting [4]); 0.5 ± 0.2 µM in the series on hOAT1-CHO and HEK-OAT1 (setting [5]).

For `C[C@H](Cn1cnc2c(N)ncnc21)OCP(=O)(O)O` [Tenofovir], the “Cell viability (MTT) relative to no exposure” value is “significantly affected” in the series on ciPTEC-OAT1 and “slightly decreased” in the series on ciPTEC-OAT3 (ciPTEC-OAT3, 1 mM, 48 h). The IC50 is 114 ± 25 µM in the series on ciPTEC-OAT1 (ciPTEC-OAT1, 24 h exposure, read-out: Inhibitory potency on cell viability (MTT), 24 h); 223 ± 67 µM in the series with ciPTEC-OAT1 (ciPTEC-OAT1, 72 h exposure, read-out: Inhibitory potency on cell viability (MTT), 72 h); 189 ± 48 µM in the series with ciPTEC-OAT1 (read-out: Inhibitory potency on cell viability (MTT), 48 h, ciPTEC-OAT1, 48 h exposure); 42 ± 8 µM against OAT1 [2]; 29.3 µM at HeLa-OAT1; 21 ± 7 µM in the series on hOAT1-CHO and HEK-OAT1 (setting [4]). In addition, the IC50 in the series on hOAT1-CHO and HEK-OAT1 (setting [5]) is 10 ± 2 µM. In addition, the “DDI index Cmax/IC50” value on OAT1 [2] was 0.014 and 0.019. Besides, on CHO-OAT1 (Ref. 35, substrate and cell line not given), the Ki is 33.8 µM.

The values above are taken from patent publication US20180362935A1, “A renal cell line with stable transporter expression” (Stichting Katholieke Universiteit, priority 2015, published 2018).
